Reference: patent US20260167656A1, “PHOSPHORAMIDATE COMPOUNDS AND USES THEREOF” (ALLORION THERAPEUTICS INC, priority 2022, published 2026)

Tests used:
[1] = system: non-small cell lung cancer cell line H460; test: In vitro human cancer cell line cytotoxicity (proliferation) assay in H460, CellTiter-Glo, 72 hours; format: cell-based; conditions: H460 cells, DMSO condition (no AKR1C3 inhibitor), read-out: CTG H460: Avg IC50 (nM) [Assay Condition: DMSO]
Description: Biological Example 1. In Vitro Human Cancer Cell Line Cytotoxicity Assay
IC50 values in nanomolar reported here were derived from in vitro proliferation assay data in non-small cell lung cancer cell line H460.
(§1) Specifically, exponentially growing cells were seeded at density of 3×10^3 cells per well in 96-well plate and incubated at 37° C. in 5% CO2, 95% air and 100% relative humidity for 24 hours before adding compounds. Compounds were solubilized in 100% DMSO at 10 mM. Compounds were added to the plate using Tecan D300e® digital Dispenser. After drug addition, the plates were incubated for an additional 72 hours at 37° C. in 5% CO2, 95% air and 100% relative humidity. At the end of the incubation, cell viability was quantified with CellTiter-Glo® assay.

[2] = system: non-small cell lung cancer cell line H460; test: H460 proliferation assay in the presence of 3 uM ASP9521 (AKR1C3 specific inhibitor); format: cell-based, human; conditions: H460 cells, CellTiter-Glo, 72 hours, in the presence of 3 uM ASP9521 added 4 hours prior to compounds; read-out: CTG H460: Avg IC50 (nM) [Assay Condition: ASP9521]
Description: as §1
To further confirm that compounds were activated by human AKR1C3, H460 proliferation assay were also performed in the presence of 3 uM […], an AKR1C3 specific inhibitor. ASP9521 were added to the plates 4 hours prior to the addition of compounds.

Question: How did the IC50 ([1]; Homo sapiens, NCI-H460, 72 h) turn out when `C[C@H]1CN1P(=O)(OC(c1ccc([N+](=O)[O-])c(Oc2cccc(C(=O)N(C)C)c2)c1)C(F)(F)F)N1C[C@@H]1C` (single isomer, unassigned) [Example 225] was run?
Answer: 50 to 100 nM

Question: What about the IC50 [2] of the same compound?
Answer: 9530 nM

Question: Which results are given for `CC(OP(=O)(N1CC1)N1CC1)c1cc2cc(Oc3cccc(C(=O)N(C)C)c3)c([N+](=O)[O-])cc2o1` (single isomer, unassigned) [Example 232]?
Answer: IC50 ([1]; Homo sapiens, NCI-H460, 72 h): 10 to 50 nM; IC50 [2]: 4110 nM

Question: What does the source list for `CC(OP(=O)(N1CC1)N1CC1)c1cc2cc(Oc3cccc(C(=O)N(C)C)c3)c([N+](=O)[O-])cc2o1` (single isomer, unassigned) [Example 233]?
Answer: IC50 [1]: < 10 nM; IC50 [2]: 3890 nM

Question: Which results are given for `Cc1ccnc(-c2ccc(Oc3c([N+](=O)[O-])ccc4c3CC[C@@H]4OP(=O)(N3CC3)N3CC3)cc2)n1` (single isomer, unassigned) [Example 264]?
Answer: IC50 ([1]; Homo sapiens, NCI-H460, 72 h): < 10 nM; IC50 [2]: 1370 nM

Question: For `O=[N+]([O-])c1ccc2c(c1Oc1ccc(-c3ncc(F)cn3)cc1)CC[C@@H]2OP(=O)(N1CC1)N1CC1` (single isomer, unassigned) [Example 265], which IC50 ([1]; Homo sapiens, NCI-H460, 72 h) is on record?
Answer: < 10 nM

Question: What about the IC50 [2] of the same compound?
Answer: 1300 nM

Question: For `O=[N+]([O-])c1ccc2c(c1Oc1ccc(-c3ncc(F)cn3)cc1)CC[C@H]2OP(=O)(N1CC1)N1CC1` (single isomer, unassigned) [Example 266], which IC50 ([1]; Homo sapiens, NCI-H460, 72 h) is on record?
Answer: 10 to 50 nM

Question: And the IC50 [2]?
Answer: 716 nM

Question: `Cn1ccc2c(F)cc(Oc3c([N+](=O)[O-])ccc4c3CC[C@@H]4OP(=O)(N3CC3)N3CC3)cc21` (single isomer, unassigned) [Example 377] was tested. Which IC50 ([1]; Homo sapiens, NCI-H460, 72 h) did it give?
Answer: < 10 nM

Question: What about the IC50 [2] of the same compound?
Answer: 1330 nM

Question: How did the IC50 ([1]; Homo sapiens, NCI-H460, 72 h) turn out when `O=[N+]([O-])c1ccc2c(c1Oc1ccc(F)c(-n3cccn3)c1)CC[C@@H]2OP(=O)(N1CC1)N1CC1` (single isomer, unassigned) [Example 403] was run?
Answer: < 10 nM

Question: And the IC50 [2]?
Answer: 1460 nM

Question: Which results are given for `C[C@@H](OP(=O)(N1CC1)N1CC1)c1cc2cc(Oc3cccc(OC(F)(F)F)c3)c([N+](=O)[O-])cc2o1` (single isomer, unassigned) [Example 531]?
Answer: IC50 ([1]; Homo sapiens, NCI-H460, 72 h): < 10 nM; IC50 [2]: 1430 nM

Question: `C[C@H](OP(=O)(N1CC1)N1CC1)c1cc2cc(Oc3cccc(OC(F)(F)F)c3)c([N+](=O)[O-])cc2o1` (single isomer, unassigned) [Example 532] was tested. Which IC50 ([1]; Homo sapiens, NCI-H460, 72 h) did it give?
Answer: < 10 nM

Question: And the IC50 [2]?
Answer: 1230 nM

Question: Which results are given for `[2H]C([2H])([2H])N(C(=O)c1cccc(Oc2cc3cc([C@H](C)OP(=O)(N4CC4)N4CC4)oc3cc2[N+](=O)[O-])c1)C([2H])([2H])[2H]` (single isomer, unassigned) [Example 533]?
Answer: IC50 ([1]; Homo sapiens, NCI-H460, 72 h): 10 to 50 nM; IC50 [2]: 7430 nM

Question: Which results are given for `CC(OP(=O)(N1CC1)N1CC1)c1ccc([N+](=O)[O-])c(Cn2ccc(=O)cc2)c1` (stereo not shown) [Example 4]?
Answer: IC50 ([1]; Homo sapiens, NCI-H460, 72 h): ≥ 100 nM; IC50 [2]: > 10000 nM

Question: `CC(OP(=O)(N1CC1)N1CC1)c1ccc([N+](=O)[O-])c(COc2ccncc2)c1` (stereo not shown) [Example 5] was tested. Which IC50 ([1]; Homo sapiens, NCI-H460, 72 h) did it give?
Answer: ≥ 100 nM

Question: And the IC50 [2]?
Answer: > 10000 nM

Question: Which IC50 ([1]; Homo sapiens, NCI-H460, 72 h) does the source give for `CC(OP(=O)(N1CC1)N1CC1)c1ccc([N+](=O)[O-])c(Cn2cc(C(=O)N(C)C)ccc2=O)c1` (stereo not shown) [Example 6] here?
Answer: ≥ 100 nM

Question: And the IC50 [2]?
Answer: > 10000 nM

Question: `CC(OP(=O)(N1CC1)N1CC1)c1ccc([N+](=O)[O-])c(COc2ccc(C(=O)N(C)C)cn2)c1` (stereo not shown) [Example 7] was tested. Which IC50 ([1]; Homo sapiens, NCI-H460, 72 h) did it give?
Answer: 10 to 50 nM

Question: And the IC50 [2]?
Answer: 3950 nM

Question: For `CC(OP(=O)(N1CC1)N1CC1)c1cc(Oc2ccc(C(=O)N(C)C)cc2)c([N+](=O)[O-])cc1F` (stereo not shown) [Example 8], which IC50 ([1]; Homo sapiens, NCI-H460, 72 h) is on record?
Answer: < 10 nM

Question: And the IC50 [2]?
Answer: 1790 nM

Question: What does the source list for `CC(OP(=O)(N1CC1)N1CC1)c1cc(Oc2ccc(C(=O)N(C)C)cc2)c([N+](=O)[O-])cc1Cl` (stereo not shown) [Example 9]?
Answer: IC50 ([1]; Homo sapiens, NCI-H460, 72 h): < 10 nM; IC50 [2]: 1720 nM

Question: `CCC1CN1P(=O)(OCc1ccc([N+](=O)[O-])c(Oc2cccc(C(=O)N(C)C)c2)c1)N1CC1CC` (stereo not shown) [Example 10] was tested. Which IC50 ([1]; Homo sapiens, NCI-H460, 72 h) did it give?
Answer: < 10 nM

Question: What about the IC50 [2] of the same compound?
Answer: 271 nM

Question: Which IC50 ([1]; Homo sapiens, NCI-H460, 72 h) does the source give for `CC(C)C1CN1P(=O)(OCc1ccc([N+](=O)[O-])c(Oc2cccc(C(=O)N(C)C)c2)c1)N1CC1C(C)C` (stereo not shown) [Example 11] here?
Answer: ≥ 100 nM

Question: What about the IC50 [2] of the same compound?
Answer: 2050 nM

Question: `C[C@H]1CN1P(=O)(OCc1c(F)c(F)c(OCc2ccc([N+](=O)[O-])c(Oc3cccc(C(=O)N(C)C)c3)c2)c(F)c1F)N1C[C@@H]1C` (stereo partly drawn) [Example 12, 4-((3-(3-(dimethylcarbamoyl)phenoxy)-4-nitrobenzyl)oxy)-2,3,5,6-tetrafluorobenzyl bis((S)-2-methylaziridin-1-yl)phosphinate] was tested. Which IC50 ([1]; Homo sapiens, NCI-H460, 72 h) did it give?
Answer: < 10 nM

Question: And the IC50 [2]?
Answer: 89 nM

Question: Which IC50 ([1]; Homo sapiens, NCI-H460, 72 h) does the source give for `C[C@@H]1CN1P(=O)(OCc1c(F)c(F)c(OCc2ccc([N+](=O)[O-])c(Oc3cccc(C(=O)N(C)C)c3)c2)c(F)c1F)N1C[C@H]1C` (stereo partly shown) [Example 13] here?
Answer: < 10 nM

Question: And the IC50 [2]?
Answer: 195 nM

Question: Which results are given for `C[C@H]1CN1P(=O)(OCc1c(F)c(F)c(OCc2ccc([N+](=O)[O-])c(Oc3ccc(C(=O)N(C)C)cc3)c2)c(F)c1F)N1C[C@@H]1C` (stereo partly shown) [Example 14]?
Answer: IC50 ([1]; Homo sapiens, NCI-H460, 72 h): < 10 nM; IC50 [2]: 553 nM

Question: With `C[C@@H]1CN1P(=O)(COc1c(F)c(F)c(OCc2ccc([N+](=O)[O-])c(Oc3ccc(C(=O)N(C)C)cc3)c2)c(F)c1F)N1C[C@H]1C` (stereo partly shown) [Example 15] as the compound, how does the IC50 ([1]; Homo sapiens, NCI-H460, 72 h) read?
Answer: < 10 nM

Question: And the IC50 [2]?
Answer: 947 nM
